Reference: US10457946B2, “Methods for overcoming glucocorticoid resistance and for determining glucocorticoid resistance potential in cancer” (St. Jude Children's Research Hospital, Inc., priority 2013, dated 2019)

Assays:
[1] = biological target: T1, Recombinant human CASP1 (Homo sapiens, UniProt P29466); assay: CASP1 enzymatic assay: cleavage of glucocorticoid receptor (NR3C1) by recombinant CASP1; assay type: biochemical; conditions: for CASP1-induced cleavage of the glucocorticoid receptor (NR3C1): recombinant human CASP1, 30° C., inhibitor 10 μM unless otherwise indicated, FIG. 3A, 3C
T1 construct: purchased Enzo Life Sciences BML-AK701-0001
T1 sequence (P29466 120-297): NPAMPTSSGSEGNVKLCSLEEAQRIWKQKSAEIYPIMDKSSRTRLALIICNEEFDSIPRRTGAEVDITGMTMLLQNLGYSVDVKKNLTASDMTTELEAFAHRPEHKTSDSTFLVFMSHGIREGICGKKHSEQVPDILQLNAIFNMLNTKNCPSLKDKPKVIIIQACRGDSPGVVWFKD
T1 sequence (P29466 317-404): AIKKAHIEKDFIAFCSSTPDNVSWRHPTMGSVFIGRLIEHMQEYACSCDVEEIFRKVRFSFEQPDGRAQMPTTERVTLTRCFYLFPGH
Protocol: Recombinant human CASP1 (100-200 U, where U=1 pmol/min at 30° C., 200 μM YVAD-pNA (SEQ ID NO: 21)) from a CASP1 assay kit for drug discovery (Enzo Life Sciences, Farmingdale, N.Y., catalog number BML-AK701-0001) was incubated at 30° C. with wild-type or mutated GR in the presence (10 μM unless otherwise indicated) or absence of inhibitors, (Ac-YVAD-CHO (SEQ ID NO: 18), Enzo Life Sciences, Farmingdale, N.Y., catalog number BML-P403-9090), VX765, VRT-043198).
Cells were pelleted by centrifugation, washed once with PBS and lysed with RIPA buffer or caspase-1 assay buffer (Enzo Life Sciences, Farmingdale, N.Y. catalog number KI-111), equal amounts of proteins (1-20 μg) separated by 4-12% Novex Bis-Tris gels (Life Technologies, Grand Island, N.Y.), and then transblotted to PVDF membranes (Life Technologies, Grand Island, N.Y.). Anti-GR (1:1000-1:10,000, BD catalog number 611227), anti-DDK […] (1:1000, Origene catalog number TA50011), anti-Bim (1:1000, Cell Signalling catalog number 2819) or anti-Tubulin (1:1000, Santa Cruz, sc-8035) were used as primary antibodies followed by appropriate secondary HRP-conjugated IgG (1:1000, Dako) and immunocomplexes were visualized by chemiluminescence.

[2] = tested on: Nalm6 leukemia cell line; assay: MTT drug sensitivity assay in Nalm6 cells with enforced CASP1 expression or empty vector; assay type: cell-based, human; conditions: for increase in resistance (LC50) by CASP1 over-expression: Nalm6 cells transduced with CASP1, after activation of NLRP3 inflammasome (LPS/ATP), average
Protocol: Leukemia cells were isolated at diagnosis from patient bone marrow aspirates. If the leukemia cell percentage from diagnostic bone marrow samples was less than ninety percent, magnetic activated cell sorting (Miltenyl Biotec, Auburn, Calif.) was performed to further enrich for leukemia cells. If red cell contamination was greater than thirty percent, red blood cell lysis was performed. Cells were centrifuged at 300 g for five minutes and resuspended at a concentration of two million cells per milliliter. Eighty microliters of this leukemia cell suspension was then plated into each experimental well of round-bottom 96-well plates. Twenty microliters of decreasing concentrations of prednisolone were added and the plates were incubated for ninety-six hours in a humidified incubator containing 5% CO2 at 37° C. For the final six hours, ten microliters of 5 milligram per milliliter MTT (3-4,5-dimethylthiazol-2,5-diphenyl tetrazolium bromide) was added to each experimental well. Drug resistance assays in cell lines were performed using between 0.25 and 2.5 million cells per milliliter. Assays were developed and performed as for patient sample assays. LC50 values were determined as previously described (Holleman et al., 2004).
Full-length CASP1 (Origene, Rockville, Md., catalog # RC218364; GenBank Accession No. NM_033292) was subcloned into a lentiviral backbone (System Biosciences, Mountain View, Calif., catalog number CD527A-1), in frame with a T2A linked puromycin resistance gene. Lentivirus was produced in 293T cells and the Nalm6 leukemia cell line was transduced. 72 hours post transduction, cells were selected with 2.5 micrograms per milliliter puromycin. Where indicated cells were treated with 10 μg/mL LPS (InvivoGen, San Diego, Calif.) followed 2 hours later by 5 mM ATP (Roche, Pleasanton, Calif.).

[3] = tested on: NALM-6 cells overexpressing CASP1; assay type: cell-based, human; conditions: CASP1 overexpressing ALL (NALM-6) cells transduced with the named shRNA, +LPS/ATP, MTT, mean±S.E.M., n=4; read-out: LC50 (glucocorticoid sensitivity, prednisolone)
Protocol: The sensitivity (LC50) of shCASP1 and shNT cells to prednisolone was determined by MTT assays (Panel B). […] Error bars represent S.E.M; n=4 replicate experiments.
NALM-6 cells overexpressing CASP1 co-transfected with either non-targeting scrambled hairpin (shNT; SEQ ID NO: 13) or shRNA hairpins targeting CASP1 (shCASP1; SEQ ID NO: 14) were stably transduced with lentiviral vectors (Addgene plasmid 25890; Sigma-Aldrich, St. Louis, Mo.) containing a wild-type glucocorticoid receptor (SEQ ID NO: 16) or a glucocorticoid receptor in which both CASP1 cleavage sites had been eliminated (double mutagenized GR, DM-GR (SEQ ID NO: 17)).
Cells were centrifuged at 300 g for five minutes and resuspended at a concentration of two million cells per milliliter. Eighty microliters of this leukemia cell suspension was then plated into each experimental well of round-bottom 96-well plates. Twenty microliters of decreasing concentrations of prednisolone were added and the plates were incubated for ninety-six hours in a humidified incubator containing 5% CO2 at 37° C. For the final six hours, ten microliters of 5 milligram per milliliter MTT (3-4,5-dimethylthiazol-2,5-diphenyl tetrazolium bromide) was added to each experimental well. […] LC50 values were determined as previously described (Holleman et al., 2004). […]

Row | Compound | CASP1-induced cleavage of the glucocorticoid receptor (NR3C1) [1] | increase in resistance (LC50) by CASP1 over-expression [2] [fold] | also measured
1 | CC(C)(C)[C@@H](NC(=O)c1ccc(N)c(Cl)c1)C(=O)N1CCC[C@H]1C(=O)N[C@H](C=O)CC(=O)O [VRT043198, (S)-3-((S)-1-((R)-2-(4-amino-3-chlorobenzamido)-3,3-dimethylbutanoyl)pyrrolidine-2-carboxamido)-4-oxobutanoic acid] | inhibited | – | inhibitory activity on CASP1 cleavage of NR3C1 compared with VX-765 ([1]; FIG. 3C): higher inhibitory activity
2 | CCO[C@H]1OC(=O)C[C@@H]1NC(=O)[C@@H]1CCCN1C(=O)[C@H](NC(=O)c1ccc(N)c(Cl)c1)C(C)(C)C [VX765, (S)-1-((R)-2-(4-amino-3-chlorobenzamido)-3,3-dimethylbutanoyl)-N-((2S,3S)-2-ethoxy-5-oxotetrahydro-furan-3-yl)pyrrolidine-2-carboxamide] | inhibited | – | –
3 | C[C@@H]1C[C@H]2[C@@H]3CCC4=CC(=O)C=C[C@]4(C)[C@@]3(F)[C@@H](O)C[C@]2(C)[C@@]1(O)C(=O)CO [dexamethasone] | – | 5.3 | –
4 | C[C@]12C=CC(=O)C=C1CC[C@@H]1[C@@H]2[C@@H](O)C[C@@]2(C)[C@H]1CC[C@]2(O)C(=O)CO [prednisolone] | – | 16.9 | difference in sensitivity on activation of the NLRP3 inflammasome and CASP1 ([2]; Nalm6 cells transduced with empty vector control virus): no difference
5 | shNT: non-targeting scrambled shRNA hairpin, control (CCGGCAACAAGATGAAGAGCACCAACTCGAGTTGGTGCTCTTCATCTTGTTGTTTTT) | – | – | CC50 [3]: 570 ± 423 µM
